Values of other authors, collected in patent US11818994B2, “Brachiaria endophytes and related methods” (Agriculture Victoria Services PTY LTD, priority 2015, dated 2023).

Tested on: Nitrosomonas spp
Conditions: Subbarao et al. 2009

## brachialactone
  biocidal activity against Nitrosomonas spp: biocidal activity
